Assay results as given in patent US20260242352A1, “INHIBITION OF SHIP1 AS A THERAPEUTIC STRATEGY FOR THE TREATMENT OF ALZHEIMER'S DISEASE” (The Trustees of Indiana University, priority 2022, published 2026).

Target: T1, SHIP1 (Homo sapiens, UniProt Q92835)
T1 sequence (Q92835 396-858): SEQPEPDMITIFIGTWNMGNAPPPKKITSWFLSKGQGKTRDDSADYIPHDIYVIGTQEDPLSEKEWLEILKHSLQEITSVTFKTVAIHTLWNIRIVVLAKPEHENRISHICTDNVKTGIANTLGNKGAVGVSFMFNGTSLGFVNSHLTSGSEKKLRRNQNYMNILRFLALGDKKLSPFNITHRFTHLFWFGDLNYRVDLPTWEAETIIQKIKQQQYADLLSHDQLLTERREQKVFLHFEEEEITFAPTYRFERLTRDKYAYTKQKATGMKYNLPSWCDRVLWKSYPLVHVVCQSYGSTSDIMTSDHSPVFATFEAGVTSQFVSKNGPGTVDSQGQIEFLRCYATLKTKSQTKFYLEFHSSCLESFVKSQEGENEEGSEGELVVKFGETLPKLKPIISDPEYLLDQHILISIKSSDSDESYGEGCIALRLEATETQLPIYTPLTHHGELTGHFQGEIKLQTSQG
Experiment: Malachite green enzyme assay
Assay type: biochemical
Settings: Table 1; PI(3,4,5)P3-diC8 52 μM, enzyme 10 nM, SHIP1 Ptase-C2, 25° C., pH7.4; geometric mean; read-out: SHIP1 IC50 μM (n)
Text: The inventors have performed a screen of 50K compounds at the SHIP1 phosphatase, analyzed a publicly available fragment-based screen, and evaluated inhibitors reported in the literature. They utilized the malachite green assay with PtdIns(3,4,5)P3-diC8 and SHIP1 Ptase-C2 to measure inhibitory potency. A Cellular Thermal Shift Assay was used to confirm target engagement in cells. A phosphoAKT assay was used to provide additional evidence of on-target activity. A high-content imaging assay measuring phagocytosis, cell number, and nuclear intensity was implemented using the BV2 and HMC3 cell lines to characterize cellular pharmacology and cytotoxicity. […] Inhibitors predicted to have drug-like properties were subjected to assays measuring solubility, cellular permeability, and mouse microsomal stability. A physiological based pharmacokinetic model was compared to measured exposure in vivo for select compounds upon oral administration in mice.
Malachite Green Enzyme Assay. […] Compounds diluted in DMSO were added to 384-well plates. Enzyme solution was added. After a 20 min incubation period, the reaction was initiated by addition of PI(3,4,5)P3-diC8. Final compound concentrations ranged from 50 nM to 950 μM. Final reaction concentrations for the PI(3,4,5)P3-diC8 substrate and the enzyme were 52 μM and 10 nM respectively. The reaction was quenched after 10 min by adding Malachite BioMol Green (Enzo Lifesciences, PA, USA). Plates were then incubated for 30 min at room temperature. Absorbance (620 nm) was measured using a SpectraMax Me5 Microplate Reader (Molecular Devices, LLC, USA). IC50 values were calculated by fitting absorbance versus inhibitor concentration.
Compounds diluted in DMSO were added to 384-well plates. Enzyme solution was added. After a 20 min incubation period, the reaction was initiated by addition of PI(3,4,5)P3-diC8. Final compound concentrations ranged from 50 nM to 950 μM. Final reaction concentrations for the PI(3,4,5)P3-diC8 substrate and the enzyme were 52 μM and 10 nM respectively. The reaction was quenched after 10 min by adding Malachite BioMol Green (Enzo Lifesciences, PA, USA). Plates were then incubated for 30 min at room temperature. Absorbance (620 nm) was measured using a SpectraMax Me5 Microplate Reader (Molecular Devices, LLC, USA). IC50 values were calculated by fitting absorbance versus inhibitor concentration and are reported as the geometric mean and standard error of mean with the number of repeats (n) indicated. Compounds and activities are as depicted in tables 1 and 2 above.

Row | Structure (SMILES) | IC50
1 | Cl.Clc1ccccc1COc1cncc(-c2cnn(C3CCNCC3)c2)c1 [Compound 9, 3-((2-chlorobenzyl)oxy)-5-(1-(piperidin-4-yl)-1H-pyrazol-4-yl)pyridine hydrochloride] | 302 µM
2 | Clc1ccccc1COc1cncc(-n2cc(C3CCNCC3)cn2)c1 [Compound 28, 3-((2-chlorobenzyl)oxy)-5-(4-(piperidin-4-yl)-1H-pyrazol-1-yl)pyridine] | 601 µM
3 | CC(C)(C)CC(=O)N1CCC(n2cc(-c3cncc(OCc4ccccc4Cl)c3)cn2)CC1 [Compound 16, 1-(4-(4-(5-((2-chlorobenzyl)oxy)pyridin-3-yl)-1H-pyrazol-1-yl)piperidin-1-yl)-3,3-dimethylbutan-1-one] | 102 µM
4 | Clc1ccccc1COc1cncc(-n2ccc(C3CCNCC3)n2)c1 [Compound 27, 3-((2-chlorobenzyl)oxy)-5-(3-(piperidin-4-yl)-1H-pyrazol-1-yl)pyridine] | 332 µM
5 | Cc1ccccc1COc1cncc(-c2cnn(C3CCNCC3)c2)c1 [Compound 25, 3-[(2-Methylphenyl)methoxy]-5-[1-(piperidin-4-yl)-1H-pyrazol-4-yl]pyridine] | 851 µM
6 | Cl.Clc1ccc(COc2cncc(-c3cnn(C4CCNCC4)c3)c2)c(Cl)c1 [Compound 10, 3-((2,4-dichlorobenzyl)oxy)-5-(1-(piperidin-4-yl)-1H-pyrazol-4-yl)pyridine hydrochloride] | 286 µM
7 | Clc1ccccc1COc1cncc(-c2ccn(C3CCNCC3)n2)c1 [Compound 26, 3-((2-chlorobenzyl)oxy)-5-(1-(piperidin-4-yl)-1H-pyrazol-3-yl)pyridine] | 690 µM
8 | C[C@@H](Oc1cncc(-c2cnn(C3CCNCC3)c2)c1)c1ccccc1Cl [Compound 22, (R)-3-(1-(2-chlorophenyl)ethoxy)-5-(1-(piperidin-4-yl)-1H-pyrazol-4-yl)pyridine] | 152 µM
9 | Clc1ccccc1COc1cccc(-c2cnn(C3CCNCC3)c2)c1 [Compound 29, 4-(4-(3-((2-chlorobenzyl)oxy)phenyl)-1H-pyrazol-1-yl)piperidine] | 186 µM
10 | CC(C)(C)OC(=O)N1CCC(n2cc(-c3cncc(OCc4ccccc4)c3)cn2)CC1 [Compound 4, tert-butyl 4-(4-(5-(benzyloxy)pyridin-3-yl)-1H-pyrazol-1-yl)piperidine-1-carboxylate] | 90.3 µM
11 | Cc1ccccc1COc1cncc(-c2cnn(C3CCN(C(=O)OC(C)(C)C)CC3)c2)c1 [Compound 3, tert-butyl 4-(4-(5-((2-methylbenzyl)oxy)pyridin-3-yl)-1H-pyrazol-1-yl)piperidine-1-carboxylate] | 116 µM
12 | CC(C)(C)OC(=O)N1CCC(n2cc(-c3cncc(OCc4ccccc4F)c3)cn2)CC1 [Compound 2, tert-butyl 4-(4-(5-((2-fluorobenzyl)oxy)pyridin-3-yl)-1H-pyrazol-1-yl)piperidine-1-carboxylate] | 81.9 µM
13 | CC(C)(C)OC(=O)N1CCC(n2cc(-c3cncc(OCc4c(Cl)cccc4Cl)c3)cn2)CC1 [Compound 5, tert-butyl 4-(4-(5-((2,6-dichlorobenzyl)oxy)pyridin-3-yl)-1H-pyrazol-1-yl)piperidine-1-carboxylate] | 35.7 µM
14 | CC(C)(C)OC(=O)N1CCC(n2cc(-c3cncc(OCc4ccc(Br)cc4)c3)cn2)CC1 [Compound 7, tert-butyl 4-(4-(5-((4-bromobenzyl)oxy)pyridin-3-yl)-1H-pyrazol-1-yl)piperidine-1-carboxylate] | 57 µM
